Laboratory results taken from patent US7083933B1, “Methods for identification of modulators of OSGPR116 activity” (Prosidion Limited, priority 2003, dated 2006).

Key:
[1] = target: T1, OSGPR116 (Homo sapiens, UniProt Q8TDV5); experiment: Yeast cell-based Fus1p-LacZ reporter assay, human OSGPR116; design: expressed in transfected cells; host or cells: engineered yeast (GPA1 and Ste3 deleted, G-alpha chimera, Fus1p-LacZ reporters); conditions: for rank of efficacy and potency among compounds tested: yeast-based reporter assay
T1 sequence (Q8TDV5 1-335): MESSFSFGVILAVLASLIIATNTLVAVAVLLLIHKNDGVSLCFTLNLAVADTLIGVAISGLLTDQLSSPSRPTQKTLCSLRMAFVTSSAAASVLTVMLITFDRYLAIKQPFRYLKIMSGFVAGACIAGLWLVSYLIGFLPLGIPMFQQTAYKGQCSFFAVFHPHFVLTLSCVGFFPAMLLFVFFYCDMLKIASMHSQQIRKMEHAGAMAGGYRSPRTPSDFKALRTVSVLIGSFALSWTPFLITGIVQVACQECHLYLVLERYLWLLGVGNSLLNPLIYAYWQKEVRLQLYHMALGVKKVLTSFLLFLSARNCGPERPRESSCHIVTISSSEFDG
Source text: (§1) The yeast cell-based reporter assays have previously been described in the literature (e.g. see Miret J. J., et. al. (2002) J. Biol. Chem. 277:6881–6887; Campbell R. M., et. al. (1999) Bioorg Med. Chem. Lett. 9:2413–2418; King K., et. al. (1990) Science. 250:121–123); WO 99/14344; WO 00/12704; and U.S. Pat. No. 6,100,042). Briefly, yeast cells have been engineered such that the endogenous yeast G-alpha (GPA1) has been deleted and replaced with G-protein chimeras constructed using multiple techniques. Additionally the endogenous yeast alpha-cell GPCR, Ste3 has been deleted to allow for a […] expression of a mammalian GPCR of choice. In the yeast, elements of the pheromone signaling transduction pathway, which are conserved in eukaryotic cells (for example, the mitogen-activated protein kinase pathway), drive the expression of Fus1. By placing β-galactosidase (LacZ) under the control of the Fus1 promoter (Fus1p), a system has been developed whereby receptor activation leads to an enzymatic read-out. Different yeast strains (e.g. FIG. 10) denote the presence of different G-alpha chimeras (see “yeast reporter assays” in Results section below for definitions).
(§2) Yeast cells are transformed by an adaptation of the Lithium acetate method described by Agatep et.al. (Agatep, R., et. al. (1998) Transformation of Saccharomyces cerevisiae by the lithium acetate/single-stranded carrier DNA/polyethylene glycol (LiAc/ss-DNA/PEG) protocol. Technical Tips Online, Trends Journals, Elsevier). Briefly, yeast cells are grown overnight on yeast tryptone plates (YT). Carrier single-stranded DNA (10 μg), 2 μg of each of two Fus1p-LacZ reporter plasmids (one with URA selection marker and one with TRP), 2 μg of OSGPR116 in yeast expression vector (2μ origin of replication) and a lithium acetate/polyethylene glycol/TE buffer is pipetted into an Epindorf tube. The yeast expression plasmid containing the receptor/no receptor control has a LEU marker. Yeast cells are inoculated into this mixture and the reaction proceeds at 30° C. for 60 minutes. The yeast cells are then heat-shocked at 42° C. for 15 minutes. The cells are then washed and spread on selection plates. The selection plates are synthetic defined yeast media minus LEU, URA and TRP (SD-LUT). After incubating at 30° C. for 2–3 days, colonies that grow on the selection plates are then tested in the LacZ assay.
(§3) In order to perform fluorometric enzyme assays for β-galactosidase, yeast cells were grown overnight in liquid SD-LUT media to an unsaturated concentration (i.e. the cells are still dividing and have not yet reached stationary phase). They are diluted in fresh media to an optimal assay concentration and 90 μL of yeast cells were added to 96-well black polystyrene plates (Costar). Compounds, dissolved in ethanol and diluted in a 1% BSA solution to 10× concentration, were added to the plates and the yeast are placed at 30° C. for 4h. After 4h, the substrate for the β-galactosidase is added to each well. The substrate may yield a fluorescent or calorimetric read-out upon the activity of the β-galactosidase. In these experiments, Fluorescein di (β-D-galactopyranoside) was used (FDG), a substrate for the enzyme that releases fluorescein, allowing a fluorometric read-out. 20 μL of 500 uM FDG was used. After incubation of the cells with the substrate for 30–60 mins, 20 μL of 1M sodium carbonate is added to terminate the reaction and enhance the fluorescent signal. The plates were then read in a fluorometer at 485/535 nm. As an alternate read-out system, the yeast are also engineered with a Fus1p-HIS gene which means that activation of the receptor can also be measured through the growth of the yeast in a […] deficient media.

[2] = test system: vector transformed yeast cells; experiment: Yeast reporter assay, vector transformed (no receptor) control yeast; format: cell-based
Source text: as §1, §2, §3

[3] = test system: Wistar rats; experiment: In vivo acute feeding experiment in fasted rats; design: species or system rat; conditions: overnight fasted Wistar rats, 1 and 2h post-treatment, FIG. 13
Description: For the acute feeding experiment, the experimental conditions used as closely as possible replicated those of de Fonseca, F. R. et.al. (2001) Nature, 414:209–212. […] Oleoylethanolamide (3 and 10 mg/kg i.p.) or vehicle was administered 15 minutes prior to the availability of food. Oleoylethanolamide was dissolved in dimethylsulfoxide (DMSO) and administered in a 70% DMSO in sterile water solution. Following presentation of food, food intake (grams) was measured at 1, 2, 3 and 4h intervals and the results compared to a normal feeding and vehicle treated control group.

[4] = target: T1, OSGPR116; experiment: Adenylate cyclase (alpha-screen cAMP) assay in ASPC-1 cells endogenously expressing OSGPR116; format: cell-based; conditions: FIG. 11
Description: The adenylate cyclase assay was performed with an alpha-screen cAMP assay kit […]. The manufacturers protocol was followed. Briefly, ASPC-1 cells, known to endogenously express moderate levels of OSGPR116 were […] from the culture flask using a lysis buffer (0.1% BSA in PBS containing 20 μM rolipram and 0.54% TWEEN20), washed with PBS and diluted in assay buffer (0.1% BSA in PBS containing 20 μM rolipram) to a concentration of 600,000 cells/mL. White polystyrene 96-well plates were used for the assay. […] The plate was incubated at room temperature 30 min. For the standard cAMP curve used to quantify the data, 5 μl water+5 μl 4×cAMP in assay buffer+5 μl acceptor beads+5 μl cells were added to the plate. To terminate the assay, 10 ul of the donor beads solution was added (30 nM biotin-cAMP/60 μg streptavidin-donor beads in 1 mL lysis buffer). The plates were incubated overnight, protected from light. A Fusion-αHT counter was used to read the plates according to the kit's instructions.

[5] = target: T1, OSGPR116; experiment: Yeast reporter assay in strains with different G-alpha chimeras; format: cell-based; design: expressed in transfected cells; host or cells: yeast strains 13397, 13393, 15070, 18043, 20202, 10151 with different G-alpha chimeras; conditions: G-alpha-q (13397), G-alpha-i (13393, 15070, 18043), G-alpha-s (20202, 10151) strains; FIG. 10
Source text: The yeast cell-based reporter assays have previously been described in the literature (e.g. see Miret J. J., et. al. (2002) J. Biol. Chem. 277:6881–6887; Campbell R. M., et. al. (1999) Bioorg Med. Chem. Lett. 9:2413–2418; King K., et. al. (1990) Science. 250:121–123); WO 99/14344; WO 00/12704; and U.S. Pat. No. 6,100,042). Briefly, yeast cells have been engineered such that the endogenous yeast G-alpha (GPA1) has been deleted and replaced with G-protein chimeras constructed using multiple techniques. Additionally the endogenous yeast alpha-cell GPCR, Ste3 has been deleted to allow for a […] expression of a mammalian GPCR of choice. […] By placing β-galactosidase (LacZ) under the control of the Fus1 promoter (Fus1p), a system has been developed whereby receptor activation leads to an enzymatic read-out. […]
In order to perform fluorometric enzyme assays for β-galactosidase, yeast cells were grown overnight in liquid SD-LUT media to an unsaturated concentration (i.e. the cells are still dividing and have not yet reached stationary phase). […] The substrate may yield a fluorescent or calorimetric read-out upon the activity of the β-galactosidase. In these experiments, Fluorescein di (β-D-galactopyranoside) was used (FDG), a substrate for the enzyme that releases fluorescein, allowing a fluorometric read-out. […] The plates were then read in a fluorometer at 485/535 nm. […]

[6] = target: T2, mouse homolog of OSGPR116 (Mus musculus, UniProt Q7TQP3); experiment: Yeast cell-based Fus1p-LacZ reporter assay, mouse OSGPR116; conditions: mouse isoform, FIG. 9b; Galpha-q5 yeast, 4h incubation
T2 construct: expressed in transfected cells; host or cells: engineered yeast (GPA1 and Ste3 deleted, G-alpha chimera, Fus1p-LacZ reporters)
T2 sequence (Q7TQP3 1-335): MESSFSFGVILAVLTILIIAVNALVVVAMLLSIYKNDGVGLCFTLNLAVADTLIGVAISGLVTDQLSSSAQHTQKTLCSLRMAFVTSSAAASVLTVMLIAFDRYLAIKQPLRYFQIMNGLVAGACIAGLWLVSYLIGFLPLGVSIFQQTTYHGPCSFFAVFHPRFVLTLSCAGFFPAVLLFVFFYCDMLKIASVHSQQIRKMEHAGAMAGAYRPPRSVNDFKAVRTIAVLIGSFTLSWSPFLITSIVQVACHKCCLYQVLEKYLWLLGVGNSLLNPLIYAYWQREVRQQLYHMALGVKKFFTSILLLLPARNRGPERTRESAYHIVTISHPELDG
Source text: as §1, §2, §3

CCCCCCCC/C=C\CCCCCCCC(=O)NCCO [oleoyl ethanolamide]
effect on fluorescence (β-galactosidase activity) in yeast transformed with OSGPR116 receptor ([1]; human isoform, FIG. 9a, Galpha-q5 yeast, 4h incubation): increase in fluorescence | rank of efficacy and potency among compounds tested ([1]; listed as Oleoyl ethanolamide): most efficacious and potent | rank of efficacy and potency among compounds tested ([1]; listed as oleoylethanolamide): optimal endogenously produced agonist | response of vector controls in the same yeast strains ([2]; G-alpha chimera strains, FIG. 10): did not respond | increase in fluorescence in vector transformed cells ([2]; yeast without OSGPR116 expression, FIGS. 9a, 9b): not | feeding (food intake) ([3]; 3 mg/kg i.p.): inhibition of feeding | feeding (food intake) ([3]; 10 mg/kg i.p.): inhibition of feeding | forskolin-stimulated cAMP accumulation ([4]; 10 μM compound with forskolin (10 μM)): inhibition | cAMP production ([4]; 10 μM, without forskolin): did not cause an increase | response in OSGPR116-transformed yeast with G-alpha chimeras [5]: produce a response | effect on fluorescence (β-galactosidase activity) in yeast transformed with OSGPR116 receptor [6]: increase in fluorescence
